Experimental data reported in patent EP0460690A2, “Use of phenolsulfophthaline derivatives for the treatment of osteoporosis” (THE GREEN CROSS CORPORATION, priority 1990, dated 1991).

Legend:
[1] = system: rats suffering from osteoporosis; assay: Bone mass increase in osteoporosis rats (ovariectomy and sciatic nerve excision); assay type: in vivo, Wister female rats; conditions: thigh bone, oral 100 µg/kg body weight everyday in 5 % Tween 20, after 12 weeks; for Bone Mass Ash wt./unit vol.: carrier 370 ± 19, normal rats 387 ± 16; for Bone Mass Dry wt./unit vol.: carrier 821 ± 15, normal rats 976 ± 11
Text: The effects of the phenolsulfophthalein compounds of the present invention of increasing bone mass were examined by using rats suffering from osteoporosis.
Wister female rats aged 7 to 8 months (8 rats per group) were subjected to ovariectomy and sciatic nerve excision to thereby cause osteoporosis. Starting from the next day after the operation, compound 1, as described above, and compound 2 (represented by formula (I), wherein R¹ and R² are both acetyl groups) each dispersed in 5 % Tween 20 were orally administered in a dose of 100 µg/kg body weight everyday. After 12 weeks, the thigh bones of the animals were collected and the volume, dry weight and ash weight were measured. Thus the dry weight and ash weight per unit volume were determined.

Wister female rats = assay: Acute toxicity, oral administration; assay type: in vivo; conditions: dispersed in 5 % Tween 20, eight rats, dose of 1 g/kg body weight
Text: Compound 1 dispersed in 5 % Tween 20 was orally administered to eight Wister female rats aged 7 to 8 months.

[2] = target: T1, estrogen receptor in mastocarcinoma (Homo sapiens, UniProt P03372); conditions: literature report; cited from earlier work
T1 construct: host or cells: mastocarcinoma
T1 sequence (P03372 1-595): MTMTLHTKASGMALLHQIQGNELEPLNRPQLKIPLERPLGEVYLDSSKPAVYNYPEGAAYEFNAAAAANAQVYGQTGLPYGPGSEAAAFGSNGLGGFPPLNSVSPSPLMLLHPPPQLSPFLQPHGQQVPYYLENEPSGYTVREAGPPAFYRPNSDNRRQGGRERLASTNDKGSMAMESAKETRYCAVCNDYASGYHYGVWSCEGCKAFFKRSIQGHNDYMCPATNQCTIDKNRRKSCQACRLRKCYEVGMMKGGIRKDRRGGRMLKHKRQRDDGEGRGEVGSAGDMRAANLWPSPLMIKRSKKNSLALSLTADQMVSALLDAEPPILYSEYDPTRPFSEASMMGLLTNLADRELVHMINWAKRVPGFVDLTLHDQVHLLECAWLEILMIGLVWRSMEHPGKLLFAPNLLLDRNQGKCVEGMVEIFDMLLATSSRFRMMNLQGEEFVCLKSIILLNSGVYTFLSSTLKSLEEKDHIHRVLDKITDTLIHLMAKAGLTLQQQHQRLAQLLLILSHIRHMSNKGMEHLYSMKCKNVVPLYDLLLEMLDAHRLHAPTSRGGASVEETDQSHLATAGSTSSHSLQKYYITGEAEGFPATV

SMILES	Bone Mass Ash wt./unit vol. [1] [mg/mL]	Bone Mass Dry wt./unit vol. [1] [mg/mL]	mortality (acute toxicity) (Wister female rats)	binding to estrogen receptor [2]
O=S(=O)(Oc1ccccc1)c1ccccc1C(c1ccc(O)cc1)c1ccc(O)cc1 [compound 1]	385 ± 12	861 ± 12	no animal died	–
CC(=O)Oc1ccc(C(c2ccc(OC(C)=O)cc2)c2ccccc2S(=O)(=O)Oc2ccccc2)cc1 [compound 2]	383 ± 14	856 ± 15	–	–
O=S(=O)(Oc1ccccc1)c1ccccc1C(c1ccc(O)cc1)c1ccc(O)cc1 [drawing 1]	–	–	–	binding to an estrogen receptor
